# Structures can show the parent of a compound that is named as a salt.
# Tests used:
# [1] = Hematochemical parameters of tumor-bearing animals
# [2] = Liver microsome metabolic stability (mouse); assay type: in vitro ADME; details: mouse liver microsomes; read-out: mouse liver microsome stability t1/2
# Description: (§1) Plasma stability (mouse) and liver microsome metabolic stability (mouse) were measured by the Biopharmacy Laboratory, Shanghai Institute of Materia Medica, Chinese Academy of Sciences.
# MDA-MB-231 cells = assay: Cell viability (neutral red); assay type: cell-based, human; details: MDA-MB-231 cells; compound alone, 5 nM
# JC cells [3] = assay: In vivo tumor growth, JC breast tumor model; details: for reduction in tumor volume at day 18: co-administered with 5 mg/kg doxorubicin i.v.
# Description: Data are presented as means ± SD.
# Tumor growth was measured daily by caliper and calculated according to the equation (L × W^2)/2, where L = tumor length, W = tumor width.
# SaOS/DX cells = assay: Cell viability (neutral red); assay type: cell-based, human; details: SaOS/DX cells; compound alone, 5 nM
# [4] = tested on: CCD-Co-18 cells, BEAS-2B cells, MCF10A cells, fibroblasts; assay: Cell viability (neutral red) of not-transformed cells; assay type: cell-based, human; details: 5 nM, 72 h; no detectable CAXII
# Source text: Supplementary Figure S4: Effects of compounds 1, 2 and 4 on not-transformed cells. (A) Not-transformed human epithelial colon CCD-Co-18 cells, epithelial lung BEAS-2B cells, epithelial breast MCF10A cells, fibroblasts (fibro) were lysed and immunoblotted for CAXII and CAIX. A549/DX cells were used as control of CAXII- and CAIX-positive cells. β-tubulin level was used as control of equal protein loading. The figure is representative of one out of three experiments with similar results. (B) Cells were grown for 72 h in fresh medium (–), or in medium containing 5 nM compounds 1, 2 and 4, then stained with neutral red dye. The absorbance of viable cells was measured spectrophotometrically. Data are presented as means ± SD (n = 4).
# JC cells [5] = assay: Cell viability (neutral red); assay type: cell-based, murine; details: JC cells; compound alone, 5 nM
# T74D cells = assay: Cell viability (neutral red); assay type: cell-based, human; details: T74D cells; compound alone, 5 nM
# [6] = tested on: ca12 KO HT29/DX, A549/DX, MDA-MB-231 and U2OS/DX cells; assay: Intracellular doxorubicin accumulation in ca12 knocked-out cells; assay type: cell-based, human
# Description: Data are presented as means ± SD (n = 4). […] The absorbance of viable cells was measured spectrophotometrically. Data are presented as means ± SD (n = 4).
# Doxorubicin content was measured fluorimetrically as detailed previously by us. […] Cells were washed twice with PBS, detached with trypsin and sonicated. The intracellular drug content was measured by liquid scintillation. The results were expressed as nmol drug/mg cell proteins, according to titration curves previously set.
# 5 × 10^5 cells were transduced with 1 μg RNA vector (CRISPR pCas guide vector) ca12 or 1 μg not-targeting vector, mixed with 1 μg donor DNA vector (Origene, Rockville, MD), following the manufacturer's instructions. Stable KO cells were selected in complete medium containing 1 μg/ml puromycin for three weeks. Knockout efficacy was evaluated by immunoblotting, as reported above.
# U2OS/DX cells = assay: Cell viability (neutral red); assay type: cell-based, human; details: U2OS/DX cells; compound alone, 5 nM
# A549 cells = assay: Cell viability (neutral red); assay type: cell-based, human; details: A549 cells; compound alone, 5 nM
# TUBO cells = assay: Cell viability (neutral red); assay type: cell-based, murine; details: TUBO cells; compound alone, 5 nM
# A549/DX cells = assay: Cell viability (neutral red); assay type: cell-based, human; details: A549/DX cells; compound alone, 5 nM
# Plasma stability (mouse) = assay type: in vitro ADME; details: read-out: mouse plasma stability t1/2 (converted)
# Description: as §1
# Pgp = Pgp ATPase activity on Pgp-rich vesicles; assay type: cell-based; details: for reduction of Pgp ATPase activity: cells grown 24 h with 5 nM compound
# Description: Pancadherin level was used as control of equal protein loading. no Ab: A549/DX sample immunoprecipitated without antibody. […] Data are presented as means ± SD (n = 3).
# The assay was performed on Pgp-enriched membrane vesicles as detailed in [39]. Verapamil (10 μM) was added to the reaction mix to achieve a maximal activation of the Pgp ATPase activity. Results were expressed as nmol hydrolyzed phosphate (Pi)/min/mg proteins, according to the titration curve previously prepared.
# HT29/DX cells = assay: Cell viability (neutral red); assay type: cell-based, human; details: HT29/DX cells; compound alone, 5 nM
# human CA IX = molecular target: human CA IX; design: method as in PMID 21851094, PMID 19827837, PMID 21314129; details: recombinant CA, errors ± 5%, three determinations; cited from earlier work
# human CA XII [7] = molecular target: human CA XII; design: method as in PMID 21851094, PMID 19827837, PMID 21314129; details: recombinant CA, errors ± 5%, three determinations; cited from earlier work
# human CA II = molecular target: human CA II; design: method as in PMID 21851094, PMID 19827837, PMID 21314129; details: recombinant CA, errors ± 5%, three determinations; cited from earlier work
# human CA I = molecular target: human CA I; design: method as in PMID 21851094, PMID 19827837, PMID 21314129; details: recombinant CA, errors ± 5%, three determinations; cited from earlier work
# human CA XII [8] = assay: CA inhibition, stopped-flow CO2 hydration; assay type: biochemical; details: ratio of Kis
# Description: Saturated CO2 solutions in water at 20°C were used as substrate, while the recombinant CA protein was prepared in Hepes buffer (10 mM, pH 7.5) with added NaClO4 (0.1 M) to maintain a constant the ionic strength. […] The inhibition constants were obtained by nonlinear least-squares methods using PRISM 3. The curve fitting algorithm allowed us to obtain the IC50 values, from which Ki values were calculated by using the Cheng-Prusoff equation.
# [9] = tested on: drug-sensitive and drug-resistant cancer cells; assay: Cell viability (neutral red), whole panel of cancer cell lines; details: read-out: IC50 of tariquidar alone
# [10] = C1 19 ng/kg intratumorally alone
# [11] = C1 1900 ng/kg intratumorally alone
# [12] = dox 5 mg/kg i.v. + C1 19 ng/kg intratumorally
# [13] = dox 5 mg/kg i.v. + C1 1900 ng/kg intratumorally
compound,measurement,setting,value
NS(=O)(=O)OCCCNS(=O)(=O)[C@@H]1O[C@H](CO)[C@@H](O)[C@H](O)[C@H]1O [Compound 1],ALT,[1]; [10],38 ± 12 U/l
same,AP,[1]; [10],91 ± 13 U/l
same,AST,[1]; [10],239 ± 72 U/l
same,CPK,[1]; [10],271 ± 84 U/l
same,Creatinine,[1]; [10],0.021 ± 0.011 mg/L
same,LDH,[1]; [10],6723 ± 1023 U/l
same,ALT,[1]; [11],45 ± 7 U/l
same,AP,[1]; [11],83 ± 11 U/l
same,AST,[1]; [11],261 ± 71 U/l
same,CPK,[1]; [11],312 ± 81 U/l
same,Creatinine,[1]; [11],0.033 ± 0.008 mg/L
same,LDH,[1]; [11],6729 ± 835 U/l
same,ALT,[1]; [12],44 ±11 U/l
same,AP,[1]; [12],79 ± 11 U/l
same,AST,[1]; [12],221 ± 71 U/l
same,CPK,[1]; [12],701 ± 129 U/l
same,Creatinine,[1]; [12],0.029 ± 0.011 mg/L
same,LDH,[1]; [12],6091 ± 836 U/l
same,ALT,[1]; [13],33 ± 15 U/l
same,AP,[1]; [13],83 ± 19 U/l
same,AST,[1]; [13],182 ± 44 U/l
same,CPK,[1]; [13],691 ± 103 U/l
same,Creatinine,[1]; [13],0.028 ± 0.008 mg/L
same,LDH,[1]; [13],6241 ± 936 U/l
same,half-life,[2],2.25 h
same,reduction in viability for individual compounds,MDA-MB-231 cells,≤ 36 ± 11%
same,reduction in tumor volume at day 18,JC cells [3]; 19 ng/kg intratumorally,21%
same,reduction in tumor volume at day 18,JC cells [3]; 1900 ng/kg intratumorally,47%
same,effect on tumor growth when used alone,"JC cells [3]; 19 and 1900 ng/kg intratumorally, alone",no effect on tumor growth
same,reduction in viability for individual compounds,SaOS/DX cells,≤ 32 ± 7%
same,cytotoxic effect in not-transformed cells,[4],did not exert any cytotoxic effect
same,reduction in viability for individual compounds,JC cells [5],≤ 30 ± 10%
same,reduction in viability for individual compounds,T74D cells,≤ 33 ± 12%
same,effect on doxorubicin intracellular accumulation,[6],lost the ability to further increase the doxorubicin intracellular accumulation
same,reduction in viability for individual compounds,U2OS/DX cells,≤ 27 ± 8%
same,reduction in viability for individual compounds,A549 cells,≤ 28 ± 10%
same,reduction in viability for individual compounds,TUBO cells,≤ 28 ± 7%
same,reduction in viability for individual compounds,A549/DX cells,≤ 38 ± 7%
same,half-life,Plasma stability (mouse),0.7 h
same,reduction of Pgp ATPase activity,Pgp,≥ 1.47 fold
same,reduction in viability for individual compounds,HT29/DX cells,≤ 31 ± 6%
NS(=O)(=O)OC[C@H]1OC(O)[C@H](O)[C@@H](O)[C@@H]1O (stereo partly drawn) [Compound 2],reduction in viability for individual compounds,MDA-MB-231 cells,≤ 36 ± 11%
same,reduction in viability for individual compounds,SaOS/DX cells,≤ 32 ± 7%
same,cytotoxic effect in not-transformed cells,[4],did not exert any cytotoxic effect
same,reduction in viability for individual compounds,JC cells [5],≤ 30 ± 10%
same,reduction in viability for individual compounds,T74D cells,≤ 33 ± 12%
same,effect on doxorubicin intracellular accumulation,[6],lost the ability to further increase the doxorubicin intracellular accumulation
same,reduction in viability for individual compounds,U2OS/DX cells,≤ 27 ± 8%
same,reduction in viability for individual compounds,A549 cells,≤ 28 ± 10%
same,reduction in viability for individual compounds,TUBO cells,≤ 28 ± 7%
same,reduction in viability for individual compounds,A549/DX cells,≤ 38 ± 7%
same,Ki,human CA IX,8.6 nM
same,reduction of Pgp ATPase activity,Pgp,≥ 1.47 fold
same,reduction in viability for individual compounds,HT29/DX cells,≤ 31 ± 6%
CCC(=O)OC1O[C@H](COS(N)(=O)=O)[C@@H](OC(=O)CC)[C@H](OC(=O)CC)[C@H]1OC(=O)CC (stereo partly drawn) [Compound 3],Ki,human CA IX,77 nM
NS(=O)(=O)OC[C@H]1OC(O)[C@H](O)[C@@H](O)[C@H]1O (stereo partly drawn) [Compound 4],reduction in viability for individual compounds,MDA-MB-231 cells,≤ 36 ± 11%
same,reduction in viability for individual compounds,SaOS/DX cells,≤ 32 ± 7%
same,cytotoxic effect in not-transformed cells,[4],did not exert any cytotoxic effect
same,reduction in viability for individual compounds,JC cells [5],≤ 30 ± 10%
same,reduction in viability for individual compounds,T74D cells,≤ 33 ± 12%
same,effect on doxorubicin intracellular accumulation,[6],lost the ability to further increase the doxorubicin intracellular accumulation
same,reduction in viability for individual compounds,U2OS/DX cells,≤ 27 ± 8%
same,reduction in viability for individual compounds,A549 cells,≤ 28 ± 10%
same,reduction in viability for individual compounds,TUBO cells,≤ 28 ± 7%
same,reduction in viability for individual compounds,A549/DX cells,≤ 38 ± 7%
same,Ki,human CA IX,62 nM
same,reduction of Pgp ATPase activity,Pgp,≥ 1.47 fold
same,reduction in viability for individual compounds,HT29/DX cells,≤ 31 ± 6%
NS(=O)(=O)c1ccc(CNS(=O)(=O)[C@@H]2O[C@H](CO)[C@@H](O)[C@H](O)[C@H]2O)cc1 [Compound 5],Ki,human CA XII [7],8.3 nM
same,Ki,human CA II,9.1 nM
same,Ki,human CA I,102 nM
NS(=O)(=O)c1ccc(CNS(=O)(=O)[C@@H]2O[C@H](CO)[C@H](O)[C@H](O)[C@H]2O)cc1 [Compound 6],Ki,human CA XII [7],8.7 nM
same,Ki,human CA II,7.8 nM
same,Ki,human CA I,87 nM
NS(=O)(=O)c1ccc(CNS(=O)(=O)[C@@H]2O[C@H](CO)[C@@H](O[C@H]3O[C@H](CO)[C@H](O)[C@H](O)[C@H]3O)[C@H](O)[C@H]2O)cc1 [Compound 7],Ki,human CA XII [7],8.9 nM
same,Ki,human CA II,5 nM
same,Ki,human CA I,107 nM
same,CAXII Isozyme Selectivity CA I/XII,human CA XII [8],12.0
same,CAXII Isozyme Selectivity CA IX/XII,human CA XII [8],11.9
same,CAXII Isozyme Selectivity CAII/ XII,human CA XII [8],0.6
same,Ki,human CA IX,106 nM
NS(=O)(=O)c1ccc(CNS(=O)(=O)[C@@H]2O[C@H](CO)[C@@H](O[C@H]3O[C@H](CO)[C@@H](O)[C@H](O)[C@H]3O)[C@H](O)[C@H]2O)cc1 [Compound 8],Ki,human CA XII [7],8.2 nM
same,Ki,human CA II,4.8 nM
same,Ki,human CA I,101 nM
same,CAXII Isozyme Selectivity CA I/XII,human CA XII [8],12.3
same,CAXII Isozyme Selectivity CA IX/XII,human CA XII [8],12.0
same,CAXII Isozyme Selectivity CAII/ XII,human CA XII [8],0.6
same,Ki,human CA IX,98 nM
"COc1cc2c(cc1OC)CN(CCc1ccc(NC(=O)c3cc(OC)c(OC)cc3NC(=O)c3cnc4ccccc4c3)cc1)CC2 [tariquidar, Tariquidar dihydrochloride, reference compound]",IC50,[9],> 10000 nM
same,effect on Pgp ATPase activity,Pgp; tariquidar 25 nM added during the assay,strongly decreased ATPase activity

# From article PMC5349880, “P-glycoprotein-mediated chemoresistance is reversed by carbonic anhydrase XII inhibitors” (Oncotarget, 2016)
